Measurements: BigSolDB 2.1

C[C@H]1COc2c(N3CCN(C)CC3)c(F)c(N)c3c(=O)c(C(=O)O)cn1c23.Cl
solubility (mole fraction)
Details	273.15 K	278.15 K	283.15 K	288.15 K	293.15 K	298.15 K	303.15 K	308.15 K	313.15 K	318.15 K
in acetonitrile	2.41e-06	2.73e-06	3.11e-06	3.59e-06	4.1e-06	4.68e-06	5.36e-06	6.07e-06	6.9e-06	7.84e-06
in ethanol	9.29e-06	1.06e-05	1.22e-05	1.39e-05	1.59e-05	1.78e-05	2.02e-05	2.29e-05	2.56e-05	2.87e-05
in water	0.000436	0.000564	0.000725	0.000971	0.00126	0.00161	0.00204	0.00253	0.00311	0.00376
